Results reported in PubChem BioAssay (NCI).
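How tested: cells in 96-well plates exposed to compound for 48 hours at five concentrations. The concentration for full growth arrest is given as TGI.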

How the values were obtained:
Assay in all cases: NCI tumour cell line growth inhibition, 48 h
[1] = test system: HCC-2998 colon
[2] = test system: OVCAR-3 ovarian
[3] = test system: SK-OV-3 ovarian
[4] = test system: NCI-H460 lung
[5] = test system: UO-31 renal
[6] = test system: A549 NSCLC
[7] = test system: SNB-19 CNS
[8] = test system: HS 578T breast
[9] = test system: SF-268 CNS
[10] = test system: TK-10 renal
[11] = test system: IGROV1 ovarian
[12] = test system: SK-MEL-28 melanoma
[13] = test system: M14 melanoma
[14] = test system: BT-549 breast
[15] = test system: UACC-257 melanoma
[16] = test system: MDA-N
[17] = test system: HT29 colon

Structure (SMILES) | TGI [1] [µM] | TGI [2] [µM] | TGI [3] [µM] | TGI [4] [µM] | TGI [5] [µM] | TGI [6] [µM] | TGI [7] [µM] | TGI [8] [µM] | TGI [9] [µM] | TGI [10] [µM] | TGI [11] [µM] | TGI [12] [µM] | TGI [13] [µM] | TGI [14] [µM] | TGI [15] [µM] | TGI [16] [µM] | TGI [17] [µM]
Cn1cc(NC(=O)Nc2cc(C(=O)Nc3cc(C(=O)Nc4ccc5cc(S(=O)(=O)O)cc(S(=O)(=O)O)c5c4)n(C)c3)n(C)c2)cc1C(=O)Nc1cc(C(=O)Nc2ccc3cc(S(=O)(=O)O)cc(S(=O)(=O)O)c3c2)n(C)c1 | > 100 | > 100 | > 100 | > 100 | > 100 | > 100 | > 100 | > 100 | > 100 | > 100 | > 100 | > 100 | > 100 | > 100 | > 100 | > 100 | > 100
CCS1=C2C(=O)CC(C)(C)CC2=Nc2ccccc21 (centres undefined) | > 100 | > 100 | > 100 | > 100 | > 100 | > 100 | > 100 | > 100 | > 100 | > 100 | > 100 | > 100 | > 100 | > 100 | > 100 | > 100 | > 100
O=C1N[C@H]2C(=O)c3c(Br)sc(Br)c3[C@H]2O1 | 24.2 | 17 | 34.7 | 35 | 4.22 | 40.4 | 30.7 | 58.6 | 14.2 | 41 | 25.3 | 10.7 | 10.4 | 28.3 | 21.7 | 20.1 | 6.59
COc1cc(C2c3cc4c(cc3OC(NNC(N)=S)C2C)OCO4)cc(OC)c1OC (centres undefined) | 18.7 | > 57.6 | > 100 | > 100 | 60.1 | > 100 | > 100 | > 100 | > 100 | > 100 | > 100 | > 100 | > 51.9 | 62.3 | > 92.7 | > 100 | 2.6
CC(=O)NC1=NC(=O)/C(=C/c2ccccc2Cl)N1C | > 100 | > 100 | > 100 | > 100 | > 100 | > 100 | > 100 | > 100 | > 100 | > 100 | > 100 | > 100 | > 100 | > 100 | > 100 | > 100 | > 100
Cc1cc(C)n(-c2nc(-n3nc(C)cc3C)nc(-n3nc(C)cc3C)n2)n1 | > 100 | > 100 | > 100 | > 100 | > 100 | > 100 | > 100 | > 100 | > 100 | 86.5 | > 100 | > 100 | > 100 | > 100 | > 100 | > 100 | > 100
O=C(CCN1CCCCC1)Nc1ccc2c(c1)C(=O)c1ccc(NC(=O)CCN3CCCCC3)cc1C2=O | 13.5 | 20.9 | 26.4 | 3 | 32.8 | 10.3 | 10.1 | 26.2 | 24.2 | 21.2 | 13.2 | 32.8 | 10.1 | 27.8 | 30.5 | 3.03 | 9.99
